≈ marks a conversion by molar mass, not a printed value.
Tests used:
L929 cells = experiment: cells; assay type: cell-based, murine; details: Mus musculus, L929, 24 h, read-out: IC50 (µM) L929
Protocol: Considering our previous research and the literature reports on the antitumor activity of aziridine derivatives, aziridine phosphines (1–4) and aziridine phosphine oxides (5–9) were tested to investigate their potential anticancer activity. The in vitro effects on cell viability were assessed using the 3-(4,5-dimethylthiazol-2-yl)-2,5-diphenyltetrazolium bromide (MTT) assay on non-tumorigenic murine fibroblasts (L929) as well as two cancer cell lines: human cervical epithelioid carcinoma (HeLa) cells and endometrial adenocarcinoma (Ishikawa) cells.
Cell viability inhibition: The in vitro effects on cell viability were determined using the 3-(4,5-dimethylthiazol-2-yl)-2,5-diphenyltetrazolium bromide (MTT) assay on non-tumorigenic murine fibroblasts L929 (ATTC®—CCL-1) as well as two cancer cell lines: human cervical epithelioid carcinoma HeLa cells (ATTC®—CCL-2™) and endometrial adenocarcinoma Ishikawa cells (ECACC 99040201). Cells were cultured on 96-well microplates at a density of 1 × 10^4 cells/well following the international in Dulbecco’s Modified Eagle’s Medium (DMEM, Biowest) supplemented with 10% fetal bovine serum (FBS, Biowest, Nuaillé, France), 100 U/mL of penicillin, and 100 μg/mL of streptomycin (Biowest, Nuaillé, France). After overnight incubation at 37 °C and 5% CO2, the growth medium was removed and 100 μL of fresh media with two-fold dilutions of the tested compounds at concentrations of 3.125–100 μM were added. […] Untreated cells in medium were used as a positive control, while a clear culture medium served as a negative control.

[1] = test system: Pseudomonas aeruginosa NCTC 6749; experiment: MIC, two-fold microdilution (EUCAST), P. aeruginosa reference strain; assay type: cell-based; details: Pseudomonas aeruginosa, NCTC6749, 18 h, read-out: MIC (µM) Pseudomonas aeruginosa NCTC 6749
Excerpt: (§1) A panel of reference bacteria, including Escherichia coli NCTC 8196, Staphylococcus aureus ATCC 6538, Klebsiella pneumoniae ATCC 13883, and Pseudomonas aeruginosa NCTC 6749, was used to assess the antibacterial activity of the nine tested aziridine phosphines (1–4) and aziridine phosphine oxides (5–9). The two-fold microdilution method, following EUCAST guidelines, was used to determine a minimal inhibitory concentration (MIC) of each compound, as presented in Table S1.
(§2) Antibacterial activity: The in vitro antibacterial activity of nine tested aziridine phosphines (1–4) and aziridine phosphine oxides (5–9) was evaluated against reference bacterial strains (E. coli NCTC 8196, S. aureus ATCC 6538, K. pneumoniae ATCC 13883, P. aeruginosa NCTC 6749) and 12 S. aureus clinical isolates, including two methicillin-resistant isolates (MRSA, D15 and D17) obtained from infected patients hospitalized at the Oncological Hospital in Lodz (Poland). All strains were kept frozen at −80 °C in Tryptic Soy Broth with 15% glycerol. The minimal inhibitory concentration (MIC) is defined as the lowest concentration of the compound that prevents visible growth of bacteria using the microdilution method followed the EUCAST guidelines. Each compound was added to 96-well microplates in two-fold dilutions at concentrations from 3.125 to 100 μM in Mueller–Hinton broth. […] Bacterial culture was added into wells at a density of 5 × 10^5 CFU mL^−1, and plates were incubated at 37 °C for 18 h. As a positive control, an untreated bacterial culture was used, and a clear culture medium served as a negative control. The optical density at OD600 was measured using the SpectraMax i3 Multi-Mode Platform (Molecular Devices, San Jose, CA, USA). Ciprofloxacin hydrochloride (CIP, Sigma-Aldrich, Darmstadt, Germany) was used as a reference antimicrobial drug.

[2] = test system: clinical S. aureus strains; experiment: MIC, microdilution, 12 clinical S. aureus strains; assay type: cell-based, Staphylococcus aureus; details: panel of 12 clinical isolates (naso-pharynx, ulcers/furuncles, bones), highest tested concentration 100 µM
Excerpt: as §1, §2

HeLa cells = experiment: Cell cycle analysis (PI staining, flow cytometry); assay type: cell-based, human; details: 24 h, concentration corresponding to IC50
Protocol: The MTT and LDH release assays provided evidence that aziridine phosphine oxides 5 and 7 inhibit cancer cell viability at concentrations equal to their respective IC50 values through antiproliferative mechanisms rather than by inducing cell death. It is expected that such observations will be reflected in cell cycle disturbances. To investigate which phase of the cell cycle is arrested, a cell cycle analysis was performed using propidium iodide (PI) staining. PI binds in proportion to the amount of DNA present in the cell. As a result of DNA replication, the cells in the S phase of the cell cycle contain more DNA than cells in the G1 phase. […] Before the exact analysis of the obtained results, we utilized a pre-gate to define the counted cells to be analyzed for cell cycle distribution. […] These findings confirmed the antiproliferative activity of these compounds.
Figure 4 Effects of 5 and 7 on cell cycle phase distribution in HeLa cells compared to untreated control. […] Data are expressed as mean ± SD of two independent experiments. Statistical significance in comparison with the untreated control, measured by two-way analysis of variance (ANOVA) followed by Bonferroni multiple comparison test, is indicated by asterisks: (*) p < 0.05, (**) p < 0.01, (***) p < 0.001.
Cell cycle analysis: The distribution of cell cycle phases was measured using flow cytometry and propidium iodide (PI) staining. The PI intercalates into the major groove of double-stranded DNA, producing a highly fluorescent signal when excited at 488 nm, with a broad emission centered around 600 nm. PI binds in proportion to the amount of DNA present in the cell. HeLa cells were seeded on 60 mm dishes at a density of 5 × 10^5 in 3 mL of Dulbecco’s Modified Eagle’s Medium F12 (DMEM-F12, Biowest, Nuaillé, France) supplemented with 10% fetal bovine serum (FBS, Biowest), 100 units/mL of penicillin G and 100 μg/mL of streptomycin (Biowest, Nuaillé, France) and incubated for 24 h at 37 °C and 5% CO2. Then, compounds 5 or 7 were added at a concentration corresponding to their IC50 values and the plate was incubated for the next 24 h. Untreated cells were used as a positive control. The cells were then harvested by trypsinization, suspended in culture medium (1 mL), centrifuged at 3600 rpm for 10 min, and washed twice with dPBS (Dulbecco’s phosphate-buffered saline, Cytogen–Polska Sp. z o.o, Zgierz, Poland). The cell sediment was resuspended in dPBS (600 μL) and fixed in 70% ice-cold ethanol. After storing the cells at 4 °C for 24 h, they were stained in PI staining solution (600 µL, 50 μg/mL of PI, and 100 μg/mL of RNAse A in dPBS) and incubated for 30 min at 37 °C in darkness. The cell cycle distribution was analyzed by flow cytometry using an LSRII (Becton Dickinson, Franklin Lakes, NJ, USA) instrument at 488 nm excitation and 535/617 emission wavelengths, and the cell cycle phase distribution from two independent experiments (10,000 cell counts/sample) was determined with the FlowJo 7.6.1 software (FlowJo, LLC, Ashland, OR, USA) using a built-in cell cycle analysis module (Watson pragmatic algorithm).

CC(C)C[C@H]1CN1c1ccccc1P(=O)(c1ccccc1)c1ccccc1 [Compound 7] gave an IC50 (L929 cells) of 17.5 ± 2.1 µM, an MIC [1] of over 100 µM and an MIC ([2]; Staphylococcus aureus) of 100 µM (≈ 37.5 µg/mL). The MIC [2] was 100 µM (≈ 37.5 µg/mL), the “cell cycle arrest (phase distribution)” value (HeLa cells) was “significant cell arrest in the S phase” and the “number of cells in the sub-G1 phase (indicative of apoptosis)” value (HeLa cells) was “significantly increased”. The “stage of S-phase arrest (histograms of cell cycle distribution)” value (HeLa cells) was “more effective in the late S phase”.
CC(C)[C@@H]1CN1c1ccccc1P(=O)(c1ccccc1)c1ccccc1 [Compound 5] was tested, and the IC50 (L929 cells) was 10.6 ± 3.2 µM, the MIC [1] was over 100 µM and the MIC ([2]; Staphylococcus aureus) was 100 µM (≈ 36.1 µg/mL). The MIC [2] was 100 µM (≈ 36.1 µg/mL), the “cell cycle arrest (phase distribution)” value (HeLa cells) was “significant cell arrest in the S phase” and the “number of cells in the sub-G1 phase (indicative of apoptosis)” value (HeLa cells) was “significantly increased”. The “stage of S-phase arrest (histograms of cell cycle distribution)” value (HeLa cells) was “cell arrest mainly in the early stages of the S phase”.

Reference: PMC11012799 (Molecules, 2024)
